ChEMBL document CHEMBL4251606, “Design and characterization of α-lipoic acyl shikonin ester twin drugs as tubulin and PDK1 dual inhibitors” (Eur J Med Chem, 2018)
Active and inactive are the calls of the source. The calls are words filed in the database; no cut-off is given here.

Key:
HepG2 = assay: Antiproliferative activity against human HepG2 cells after 24 hrs by MTT assay; type: functional, cell-based; details: HepG2, 24 h
MDA-MB-231 = assay: Antiproliferative activity against human MDA231 cells after 24 hrs by MTT assay; type: functional, cell-based; details: MDA-MB-231, 24 h
HeLa [1] = assay: Antiproliferative activity against human HeLa cells after 24 hrs by MTT assay; type: functional, cell-based
A549 = assay: Antiproliferative activity against human A549 cells after 24 hrs by MTT assay; type: functional, cell-based; details: A549, 24 h
L02 = assay: Antiproliferative activity against human LO2 cells after 24 hrs by MTT assay; type: cell-based; details: L02, 24 h
HEK-293T = assay: Antiproliferative activity against human 293T cells after 24 hrs by MTT assay; type: cell-based
HeLa [2] = assay: Cell cycle arrest in human HeLa cells assessed as accumulation of cells at G1 phase at 1 uM after 24 hrs by propidium iodide staining-based FACScan flow cytometric analysis (reference value: 64.58%); type: functional
HeLa [3] = assay: Cell cycle arrest in human HeLa cells assessed as accumulation of cells at S phase at 1 uM after 24 hrs by propidium iodide staining-based FACScan flow cytometric analysis (reference value: 20.45%); type: functional
HeLa [4] = assay: Cell cycle arrest in human HeLa cells assessed as accumulation of cells at G2/M phase at 1 uM after 24 hrs by propidium iodide staining-based FACScan flow cytometric analysis (reference value: 14.97%); type: functional
HeLa [5] = assay: Cell cycle arrest in human HeLa cells assessed as accumulation of cells at G1 phase at 2 uM after 24 hrs by propidium iodide staining-based FACScan flow cytometric analysis (reference value: 64.58%); type: functional
HeLa [6] = assay: Cell cycle arrest in human HeLa cells assessed as accumulation of cells at S phase at 2 uM after 24 hrs by propidium iodide staining-based FACScan flow cytometric analysis (reference value: 20.45%); type: functional
HeLa [7] = assay: Cell cycle arrest in human HeLa cells assessed as accumulation of cells at G2/M phase at 2 uM after 24 hrs by propidium iodide staining-based FACScan flow cytometric analysis (reference value: 14.97%); type: functional
HeLa [8] = assay: Cell cycle arrest in human HeLa cells assessed as accumulation of cells at G1 phase at 4 uM after 24 hrs by propidium iodide staining-based FACScan flow cytometric analysis (reference value: 64.58%); type: functional
HeLa [9] = assay: Cell cycle arrest in human HeLa cells assessed as accumulation of cells at S phase at 4 uM after 24 hrs by propidium iodide staining-based FACScan flow cytometric analysis (reference value: 20.45%); type: functional
HeLa [10] = assay: Cell cycle arrest in human HeLa cells assessed as accumulation of cells at G2/M phase at 4 uM after 24 hrs by propidium iodide staining-based FACScan flow cytometric analysis (reference value: 14.97%); type: functional
HeLa [11] = assay: Inhibition of microtubule polymerization in human HeLa cells at 4 uM after 24 hrs by rhodamine/DAPI staining-based confocal microscopic analysis; type: cell-based
HeLa [12] = assay: Antitumor activity against human HeLa cells xenografted in nude mouse assessed as reduction in tumor size at 1 mg/kg, ip administered once in every 2 days for 15 days relative to control; type: functional, organism-based
Mus musculus = assay: Toxicity in nude mouse xenografted with human HeLa cells assessed as loss in body weight at 1 mg/kg, ip administered once in every 2 days for 15 days; type: organism-based; details: in vivo
HeLa [13] = assay: Induction of microtubule polymerization in human HeLa cells assessed as bundle like formation at 0.5 uM after 24 hrs by rhodamine/DAPI staining-based confocal microscopic analysis; type: cell-based
Homo sapiens [14] = species on record: Homo sapiens; assay: Induction of microtubule polymerization (unknown origin) at 0.5 uM after 24 hrs by immunoblot
HeLa [15] = assay: Inhibition of microtubule polymerization in human HeLa cells at 0.5 uM after 24 hrs by rhodamine/DAPI staining-based confocal microscopic analysis; type: cell-based
Homo sapiens [16] = species on record: Homo sapiens; assay: Inhibition of microtubule polymerization (unknown origin) at 0.5 uM after 24 hrs by immunoblot
[17] = biological target: [Pyruvate dehydrogenase (acetyl-transferring)] kinase isozyme 1, mitochondrial (Homo sapiens) (UniProt Q15118); details: HeLa, 10 mM
Description: Inhibition of PDK1 in human HeLa cells assessed as increase in PDH-E1 alpha expression at 10 mM by Western blot analysis

[18] = biological target: [Pyruvate dehydrogenase (acetyl-transferring)] kinase isozyme 1, mitochondrial (Homo sapiens) (UniProt Q15118); details: HeLa, 10 mM; remark: listed apart in the source
Description: Inhibition of PDK1 in human HeLa cells assessed as decrease in PDH-E1 alpha p-ser300 expression at 10 mM by Western blot analysis

[19] = biological target: [Pyruvate dehydrogenase (acetyl-transferring)] kinase isozyme 1, mitochondrial (Homo sapiens) (UniProt Q15118); details: HeLa, 10 mM; remark: listed apart in the source
Description: Inhibition of PDK1 in human HeLa cells assessed as decrease in PDH-E1 alpha p-ser232 expression at 10 mM by Western blot analysis

Row | Compound | IC50 (HepG2) | IC50 (MDA-MB-231) | IC50 (HeLa [1]) | IC50 (A549) | IC50 (L02) | IC50 (HEK-293T) | further results
1 | CC(C)=CC[C@@H](OC(=O)CCCC[C@@H]1CCSC(c2ccc(C(F)(F)F)cc2)S1)C1=CC(=O)c2c(O)ccc(O)c2C1=O (some centres undefined) | 11.8 µM | 9.57 µM | 23.4 µM | 10.2 µM | 90.9 µM | 73.4 µM | 
2 | CC(C)=CC[C@@H](OC(=O)CCCC[C@@H]1CCSC(c2cccc(Cl)c2Cl)S1)C1=CC(=O)c2c(O)ccc(O)c2C1=O (some centres undefined) | 5.08 µM | 25.8 µM | 13.6 µM | 10.7 µM | 119 µM | 97.8 µM | 
3 | CC(C)=CC[C@@H](O)C1=CC(=O)c2c(O)ccc(O)c2C1=O [SHIKONIN] | 6.92 µM | 8.75 µM | 6.86 µM | 3.53 µM | 3.41 µM | 62.8 µM | Activity (HeLa [2]): 63.83%; Activity (HeLa [3]): 17.42%; Activity (HeLa [4]): 18.75%; Activity (HeLa [5]): 62.72%; Activity (HeLa [6]): 13.25%; Activity (HeLa [7]): 24.03%; Activity (HeLa [8]): 57.75%; Activity (HeLa [9]): 14.13%; Activity (HeLa [10]): 28.12%; inhibition (HeLa [11]): Active; Activity (HeLa [12]): Active; Activity (Mus musculus): Toxic
4 | CC(C)=CC[C@@H](OC(=O)CCCC[C@@H]1CCSC(c2ccccc2C)S1)C1=CC(=O)c2c(O)ccc(O)c2C1=O (some centres undefined) | 24.3 µM | 17.4 µM | 14.9 µM | 10 µM | 89.8 µM | 102 µM | 
5 | CC(=O)O[C@H]1C(=O)[C@@]2(C)[C@H]([C@H](OC(=O)c3ccccc3)[C@]3(O)C[C@H](OC(=O)[C@H](O)[C@@H](NC(=O)c4ccccc4)c4ccccc4)C(C)=C1C3(C)C)[C@]1(OC(C)=O)CO[C@@H]1C[C@@H]2O |  |  |  |  |  |  | Activity (HeLa [13]): Active; Activity (Homo sapiens [14]): Active
6 | CC(C)=CC[C@@H](OC(=O)CCCC[C@@H]1CCSC(C2CCCCC2)S1)C1=CC(=O)c2c(O)ccc(O)c2C1=O (some centres undefined) | 28.4 µM | 19.6 µM | 21.9 µM | 27.2 µM | 108 µM | 116 µM | 
7 | CC(C)=CC[C@@H](OC(=O)CCCC[C@@H]1CCSC(c2ccc(C)cc2)S1)C1=CC(=O)c2c(O)ccc(O)c2C1=O (some centres undefined) | 45.7 µM | 11.9 µM | 11.5 µM | 12.1 µM | 85.6 µM | 88.6 µM | 
8 | COc1ccccc1C1SCC[C@@H](CCCCC(=O)O[C@H](CC=C(C)C)C2=CC(=O)c3c(O)ccc(O)c3C2=O)S1 (some centres undefined) | 26.7 µM | 24.2 µM | 9.96 µM | 6.03 µM | 116 µM | 79.3 µM | 
9 | COc1ccc(C2SCC[C@@H](CCCCC(=O)O[C@H](CC=C(C)C)C3=CC(=O)c4c(O)ccc(O)c4C3=O)S2)cc1 (some centres undefined) | 30.1 µM | 18 µM | 16 µM | 20.7 µM | 94.8 µM | 105 µM | 
10 | CC(C)=CC[C@@H](OC(=O)CCCC[C@@H]1CCSC(c2ccc([N+](=O)[O-])cc2)S1)C1=CC(=O)c2c(O)ccc(O)c2C1=O (some centres undefined) | 20.4 µM | 16.2 µM | 26.9 µM | 22.2 µM | 96.2 µM | 95.4 µM | 
11 | CC(C)=CC[C@@H](OC(=O)CCCC[C@@H]1CCSS1)C1=CC(=O)c2c(O)ccc(O)c2C1=O | 17.4 µM | 25.9 µM | 28.9 µM | 14.6 µM | 103 µM | 83.5 µM | 
12 | COc1cc2c(c(OC)c1OC)-c1ccc(OC)c(=O)cc1[C@@H](NC(C)=O)CC2 [COLCHICINE] | 4.65 µM | 3.89 µM | 2.54 µM | 4.64 µM | 3.01 µM | 6.38 µM | inhibition (HeLa [15]): Active; inhibition (Homo sapiens [16]): Active
13 | CC(C)=CC[C@@H](OC(=O)CCCC[C@@H]1CCSC(c2ccc(C(C)C)cc2)S1)C1=CC(=O)c2c(O)ccc(O)c2C1=O (some centres undefined) | 25.9 µM | 8.97 µM | 17.5 µM | 19.6 µM | 85.6 µM | 108 µM | 
14 | CC(C)=CC[C@@H](OC(=O)CCCC[C@@H]1CCSC(c2cccc(C(F)(F)F)c2)S1)C1=CC(=O)c2c(O)ccc(O)c2C1=O (some centres undefined) | 4.53 µM | 35.1 µM | 20.2 µM | 19.6 µM | 136 µM | 83.9 µM | 
15 | CC(C)=CC[C@@H](OC(=O)CCCC[C@@H]1CCSC(c2ccc(Cl)cc2Cl)S1)C1=CC(=O)c2c(O)ccc(O)c2C1=O (some centres undefined) | 17.8 µM | 28 µM | 9.17 µM | 17.5 µM | 121 µM | 90.1 µM | 
16 | CC(C)=CC[C@@H](OC(=O)CCCC[C@@H]1CCSC(c2cccc(Br)c2)S1)C1=CC(=O)c2c(O)ccc(O)c2C1=O (some centres undefined) | 21.9 µM | 26.8 µM | 13.3 µM | 22.2 µM | 93 µM | 102 µM | 
17 | COc1ccc(C2SCC[C@@H](CCCCC(=O)O[C@H](CC=C(C)C)C3=CC(=O)c4c(O)ccc(O)c4C3=O)S2)cc1OC (some centres undefined) | 4.34 µM | 16.7 µM | 21.9 µM | 19.3 µM | 99.3 µM | 116 µM | 
18 | O=C(O)C(Cl)Cl [DICHLOROACETIC ACID] | > 100 µM | > 100 µM | > 100 µM | > 100 µM | > 100 µM | > 100 µM | inhibition [17]: Active; inhibition [18]: Active; inhibition [19]: Active
19 | CC(C)=CC[C@@H](OC(=O)CCCC[C@@H]1CCSC(c2ccc(Cl)cc2)S1)C1=CC(=O)c2c(O)ccc(O)c2C1=O (some centres undefined) | 6.69 µM | 17.7 µM | 21.4 µM | 7.42 µM | 83.6 µM | 64.7 µM | 
20 | CC(C)=CC[C@@H](OC(=O)CCCC[C@@H]1CCSC(c2c(Cl)cccc2Cl)S1)C1=CC(=O)c2c(O)ccc(O)c2C1=O (some centres undefined) | 14.9 µM | 29.2 µM | 8.95 µM | 10.4 µM | 79.8 µM | 69.9 µM | 
21 | CC(C)=CC[C@@H](OC(=O)CCCC[C@@H]1CCSC(c2ccccc2Cl)S1)C1=CC(=O)c2c(O)ccc(O)c2C1=O (some centres undefined) | 11.3 µM | 20.6 µM | 16.5 µM | 16.8 µM | 95.8 µM | 78 µM | 
